Data on 1 substance can be found in US6521594B1, “Method and composition for treating thrombosis” (La Jolla Cancer Research Foundation, priority 1990, dated 2003).

The target of assay [1] is T1, platelets (Homo sapiens, UniProt P05106+P08514). The format is cell-based. As to conditions: ADP 10 μm; citrated PRP; read-out: ADP-Stimulated Aggregation (IC50).
Protocol: Briefly, the change in light transmission was measured through a stirred suspension of platelets in an aggregometer (Model 400 VS, Chrono-Log, Havertown, Pa., USA). […] In studies using thrombin, the PRP was gel-filtered on Sepharose 2B in divalent ion-free Tyrode's solution containing 2% BSA. For all studies, the reference standard was platelet-poor plasma, which was obtained by centrifuging PRP at 1000×g for 5 min.
All aggregation studies were performed at 37° C. with a constantly stirred suspension of 3×10^8 platelets/ml. (Platelet count was determined with the aid of a hemacytometer.) Peptides and stimulants were added to these suspensions in 1% dilutions. The PRP and gel-filtered platelets were used within three hours from the time of blood collection.
Peptide anti-aggregation potencies were determined from dose-responsive curves for the inhibition of the maximum aggregation responses stimulated by physiologic doses of ADP (10 μm) and thrombin (2 U/ml).
In assay [2] the target is T1, platelets. As to the kind of experiment: Human platelet aggregation in PRP (modified assay, Table II). It counts as cell-based. As to conditions: citrate, collagen, U46619 or ADP.
Protocol: In an independent study, a slightly modified aggregation assay was used. Platelet aggregation assays were performed in human platelet rich plasma (PRP). […] The blood was centrifuged at 160×g for 10 minutes at 22° C. and allowed to stand for 5 minutes after which the PRP was decanted. Platelet poor plasma (PPP) was isolated from the remaining blood after centrifugation at 2000×g for 25 minutes. The platelet count of the PRP was diluted to about 300,000 platelets per microliter with PPP.
A 225 μl aliquot of PRP plus 25 μl of either a dilution of the test inhibitor sample or a control (PBS) was incubated for 5 minutes in a Chrono-log Whole Blood Aggregometer at 37° C.
The test system of assay [3] is platelets. As to the kind of experiment: Ex vivo platelet aggregation in the canine coronary thrombosis study. Details: species or system dog. As for the experimental part:
For all ex vivo studies (see FIG. 3), control aggregation values were standardized to the percentages of light transmission observed in PRP and PPP samples (0% and 100%, respectively).
(§1) Animals were randomly assigned to two treatment groups: vehicle control (i.e., normal saline) or RGD peptides at various concentrations. Peptides were administered intra-atrially in both bolus and continuous injections. Each bolus injection consisted of 0.5 to 10 mg/kg and was administered 15 minutes before application of the current. A continuous infusion of the same peptide was then started immediately after completion of this initial injection. Animals received a 25 μg/kg/min to 200 μg/kg/min infusion. The anti-thrombotic effects of the peptides were monitored until 30 minutes after the occurrence of a persistent, occlusive thrombus or five hours after the initiation of electrical stimulation (whichever resulted first). If an occlusive thrombus had not developed within four hours after the initiation of current, the peptide infusion was stopped.
Platelet counts and ex vivo aggregation studies were performed one hour before and 1, 3, and 5 hours after application of anodal direct current.
Platelet aggregation was also determined ex vivo at one, three, and five hours after current application. For these studies, arachidonic acid, or collagen was again used to stimulate the platelets.

For the next assay, the system named is coronary thrombosis. As to the kind of experiment: Electrically induced canine coronary thrombosis (time to full occlusion). The format is in vivo, dog. As for the experimental part:
Male mongrel dogs weighing 14 to 20 kg were selected based on proper aggregation of their platelets in response to arachidonic acid, collagen, and adenosine disphosphate (ADP) and based on similar weights and hemodynamic properties.
Before surgery, the animals were anesthetized with sodium pentobarbital (30 mg/kg, i.v.) and then intubated and ventilated on room air with positive pressure using a respirator (Harvard Apparatus, S. Natick, Mass.) at a volume of 30 ml/kg and a frequency of 12 breaths/min. Surgery, performed under aseptic conditions, was begun with the placement of cannulae into the left carotid artery and jugular vein for monitoring arterial blood pressure (Statham P23 pressure transducer, Gould, Inc., Cardiovascular Products, Oxnard, Calif.) and administering intravenous fluids.
The heart was exposed via a left thoracotomy through the 5th intercostal space. A 2-cm segment of the left circumflex coronary artery (LCCA) was isolated from surrounding tissue by blunt dissection. […] The intra-coronary electrode was constructed by attaching a 25-gauge hypodermic needle tip to a 30-gauge Teflon-insulated silver-coated copper wire. The mechanical occluder was constructed of stainless steel in a C shape with a Teflon screw (2 mm diameter) on top. It was adjusted to control vessel circumference and decrease the reactive hyperemic flow due to a 10-sec (full) occlusion by 50-70% without affecting basal coronary blood flow (FIG. 1). A monopolar epicardial electrode was sutured to the surface of the ventricle in the region of LCCA distribution to monitor ischemic changes in the electrocardiogram (ECG). The left atrium was cannulated with polythylene tubing for administration of the peptide. Continuous recordings of blood pressure, limb lead II ECG, epicardial electrogram, and mean and phasic LCCA blood flow were obtained on a Model 7 polygraph (Grass Instrument Co., Quincy, Mass.).
One hour after the completion of surgery, a 100 micro-amp continuous anodal direct current delivered from a 9 volt nickel-cadmium battery was applied to the intimal surface of the LCCA. The anode of the battery was in series with a 250,000 ohm potentiometer and the intraluminal coronary artery electrode. The electric circuit was completed by placing the cathode in a subcutaneous site. Electrical stimulation was applied for three hours. At the conclusion of each experiment, the heart was fibrillated electrically and quickly removed, and the LCCA was dissected free as far as possible to verify the position of the implanted anodal electrode.
as §1
Coronary thrombosis was quantified as the time to full occlusion. The effects of the various peptide treatments on coronary thrombosis is illustrated in FIG. 4.

Like-named read-outs stand apart in the source and are kept apart here.

T1 sequence (P08514 32-1039): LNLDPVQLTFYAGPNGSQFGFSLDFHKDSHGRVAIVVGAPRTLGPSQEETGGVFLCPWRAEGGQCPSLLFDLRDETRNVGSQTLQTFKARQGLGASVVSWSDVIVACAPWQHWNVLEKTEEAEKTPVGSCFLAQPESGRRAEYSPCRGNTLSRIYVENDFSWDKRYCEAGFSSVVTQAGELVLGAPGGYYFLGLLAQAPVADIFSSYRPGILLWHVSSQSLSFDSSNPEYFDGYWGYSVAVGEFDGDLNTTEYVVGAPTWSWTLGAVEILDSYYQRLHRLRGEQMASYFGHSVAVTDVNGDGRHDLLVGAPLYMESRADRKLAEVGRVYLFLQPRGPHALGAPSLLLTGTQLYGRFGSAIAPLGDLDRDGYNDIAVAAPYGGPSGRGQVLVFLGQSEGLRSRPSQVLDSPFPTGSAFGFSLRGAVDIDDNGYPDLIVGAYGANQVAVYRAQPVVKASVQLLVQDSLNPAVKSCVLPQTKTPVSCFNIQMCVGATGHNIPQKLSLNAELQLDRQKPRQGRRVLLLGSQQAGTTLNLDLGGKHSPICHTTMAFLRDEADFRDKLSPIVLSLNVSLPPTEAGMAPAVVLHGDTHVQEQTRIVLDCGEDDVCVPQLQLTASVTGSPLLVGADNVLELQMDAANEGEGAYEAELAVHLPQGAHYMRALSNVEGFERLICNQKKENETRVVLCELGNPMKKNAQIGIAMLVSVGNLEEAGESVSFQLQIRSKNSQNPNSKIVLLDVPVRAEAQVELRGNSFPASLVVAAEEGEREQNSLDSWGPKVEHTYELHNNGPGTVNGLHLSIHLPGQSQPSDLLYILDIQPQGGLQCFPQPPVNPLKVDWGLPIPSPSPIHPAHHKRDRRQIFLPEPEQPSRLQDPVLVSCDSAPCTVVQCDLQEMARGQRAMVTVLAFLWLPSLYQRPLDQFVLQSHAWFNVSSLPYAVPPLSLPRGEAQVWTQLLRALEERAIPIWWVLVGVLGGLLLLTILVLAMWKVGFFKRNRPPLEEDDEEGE
T1 sequence (P05106 27-788): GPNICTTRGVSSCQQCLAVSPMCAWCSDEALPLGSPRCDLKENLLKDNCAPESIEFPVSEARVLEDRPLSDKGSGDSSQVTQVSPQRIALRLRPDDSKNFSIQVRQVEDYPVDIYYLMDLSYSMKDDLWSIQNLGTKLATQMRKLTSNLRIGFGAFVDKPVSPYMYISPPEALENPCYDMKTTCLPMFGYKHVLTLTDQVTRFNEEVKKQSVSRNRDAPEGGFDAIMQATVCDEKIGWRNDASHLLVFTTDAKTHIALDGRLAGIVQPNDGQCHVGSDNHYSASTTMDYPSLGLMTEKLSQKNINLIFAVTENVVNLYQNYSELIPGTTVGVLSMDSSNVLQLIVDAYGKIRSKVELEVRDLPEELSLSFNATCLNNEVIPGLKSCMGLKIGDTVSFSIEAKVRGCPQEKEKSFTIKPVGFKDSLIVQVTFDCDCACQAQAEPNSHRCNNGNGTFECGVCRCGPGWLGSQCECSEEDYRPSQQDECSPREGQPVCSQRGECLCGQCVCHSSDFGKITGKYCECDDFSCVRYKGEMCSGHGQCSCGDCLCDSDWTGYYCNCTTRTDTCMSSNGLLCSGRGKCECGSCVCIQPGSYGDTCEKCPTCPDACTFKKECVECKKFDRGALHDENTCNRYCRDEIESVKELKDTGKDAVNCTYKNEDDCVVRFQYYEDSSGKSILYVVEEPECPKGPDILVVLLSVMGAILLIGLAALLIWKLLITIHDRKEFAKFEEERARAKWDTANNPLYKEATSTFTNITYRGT

As to R(Pen)GHRGDWRCR [4Q], the IC50 at platelets [1] came to 1.3 µM; against platelets [2], 3.3 µM. For the same substance, in the assay with platelets [3] (5 mg/kg injection), the “ex vivo platelet activation by collagen” value is “near-maximal inhibition”. In the assay on platelets [3] (5 mg/kg injection, all three time points), the “ex vivo platelet response to ADP and AA” value was “completely unresponsive”. Moreover, the “ex vivo platelet aggregation by ADP, AA and collagen” value in the assay with platelets [3] (10 mg/kg injection) is “prevented platelet aggregation by all three stimuli at one- and three-hour time points”. Besides, the “coronary thrombosis: time to full occlusion” value with coronary thrombosis (5 mg/kg) is reported as “significantly prolonged the time to occlusion”; in the assay with coronary thrombosis (10 mg/kg), “completely prevented occlusion”. Also, the “thrombus formation in animals with platelet levels one-third of normal” value with coronary thrombosis (5 mg/kg) was “able to prevent thrombus formation”.
